# Calls of active or inactive are those of the source. No cut-off for these calls is given here.
# Columns and labels:
# PC-3 [1] = experiment: Cell cycle arrest in human PC3 cells harboring p53 mutant assessed as mitotic index at 25 uM measured after 48 hrs by Hoechst staining based fluorescence assay (reference value: 2.5); assay type: functional
# Caco-2 [2] = experiment: Cell cycle arrest in human Caco2 cells assessed as mitotic index at 25 uM measured after 48 hrs by Hoechst staining based fluorescence assay (reference value: 3.6); assay type: functional
# Caco-2 [3] = experiment: Cell cycle arrest in human Caco2 cells assessed as accumulation at S phase at 10 uM measured after 48 hrs by Hoechst/BrdU staining based fluorescence assay (reference value: […]); assay type: functional
# Huh-7 [4] = experiment: Cell cycle arrest in human HuH7 cells assessed as mitotic index at 25 uM measured after 48 hrs by Hoechst staining based fluorescence assay (reference value: 2.2); assay type: functional
# MDA-MB-231 [5] = experiment: Cell cycle arrest in human MDA-MB-231 cells harboring p53 mutant assessed as mitotic index at 10 uM measured after 48 hrs by Hoechst staining based fluorescence assay (reference value: 2.1); assay type: functional
# Huh-7 [6] = experiment: Cell cycle arrest in human HuH7 cells assessed as accumulation at S phase at 10 uM measured after 48 hrs by Hoechst/BrdU staining based fluorescence assay (reference value: 44%); assay type: functional
# HCT-116 [7] = experiment: Cell cycle arrest in human HCT116 cells assessed as accumulation at G2/M phase by Hoechst staining based fluorescence assay; assay type: functional
# Caco-2 [8] = experiment: Cell cycle arrest in human Caco2 cells assessed as accumulation at S phase at 25 uM measured after 48 hrs by Hoechst/BrdU staining based fluorescence assay (reference value: […]); assay type: functional
# [9] = Selectivity index, ratio of IC50 for human fibroblasts to IC50 for human HCT116 cells
# NCI-H727 [10] = experiment: Cell cycle arrest in human NCI-H727 cells harboring p53 mutant assessed as accumulation at S phase at 10 uM measured after 48 hrs by Hoechst/BrdU staining based fluorescence assay (reference value: 40.3%); assay type: functional
# HCT-116 [11] = experiment: Cytotoxicity against human HCT116 cells assessed as cell viability after 48 hrs by Hoechst 33342 staining based assay; assay type: functional; conditions: HCT-116, 48 h
# HaCaT [12] = experiment: Cell cycle arrest in human HaCaT cells harboring […] p53 assessed as mitotic index at 10 uM measured after 48 hrs by Hoechst staining based fluorescence assay (reference value: 2.6); assay type: functional
# Huh-7 [13] = experiment: Cell cycle arrest in human HuH7 cells assessed as accumulation at S phase at 25 uM measured after 48 hrs by Hoechst/BrdU staining based fluorescence assay (reference value: 44%); assay type: functional
# PC-3 [14] = experiment: Cell cycle arrest in human PC3 cells harboring p53 mutant assessed as mitotic index at 10 uM measured after 48 hrs by Hoechst staining based fluorescence assay (reference value: 2.5); assay type: functional
# NCI-H727 [15] = experiment: Cell cycle arrest in human NCI-H727 cells harboring p53 mutant assessed as mitotic index at 10 uM measured after 48 hrs by Hoechst staining based fluorescence assay (reference value: 1.1); assay type: functional
# RL = experiment: Cytotoxicity against human RL assessed as cell viability after 48 hrs by Hoechst 33342 staining based assay; assay type: functional
# [16] = Selectivity index, ratio of IC50 for human fibroblasts to IC50 for human HaCaT cells
# PC-3 [17] = experiment: Cytotoxicity against human PC3 cells assessed as cell viability after 48 hrs by Hoechst 33342 staining based assay; assay type: functional; conditions: PC-3, 48 h
# Huh-7 [18] = experiment: Cytotoxicity against human HuH7 cells assessed as cell viability after 48 hrs by Hoechst 33342 staining based assay; assay type: functional; conditions: Huh-7, 48 h
# MDA-MB-231 [19] = experiment: Cell cycle arrest in human MDA-MB-231 cells harboring p53 mutant assessed as accumulation at S phase at 10 uM measured after 48 hrs by Hoechst/BrdU staining based fluorescence assay (reference value: 42.2%); assay type: functional
# HaCaT [20] = experiment: Cell cycle arrest in human HaCaT cells harboring […] p53 assessed as accumulation at S phase at 25 uM measured after 48 hrs by Hoechst/BrdU staining based fluorescence assay (reference value: 52.3%); assay type: functional
# HCT-116 [21] = experiment: Cell cycle arrest in human HCT116 cells harboring wild-type p53 assessed as mitotic index at 25 uM measured after 48 hrs by Hoechst staining based fluorescence assay (reference value: 2.3); assay type: functional
# [22] = Selectivity index, ratio of IC50 for human fibroblasts to IC50 for human Caco2 cells
# HCT-116 [23] = experiment: Cell cycle arrest in human HCT116 cells harboring wild-type p53 assessed as mitotic index at 10 uM measured after 48 hrs by Hoechst staining based fluorescence assay (reference value: 2.3); assay type: functional
# Fibroblast = experiment: Cytotoxicity against human fibroblasts assessed as cell viability after 48 hrs by Hoechst 33342 staining based assay
# MDA-MB-231 [24] = experiment: Cell cycle arrest in human MDA-MB-231 cells harboring p53 mutant assessed as accumulation at S phase at 25 uM measured after 48 hrs by Hoechst/BrdU staining based fluorescence assay (reference value: 42.2%); assay type: functional
# HaCaT [25] = experiment: Cell cycle arrest in human HaCaT cells harboring […] p53 assessed as mitotic index at 25 uM measured after 48 hrs by Hoechst staining based fluorescence assay (reference value: 2.6); assay type: functional
# MDA-MB-231 [26] = experiment: Cytotoxicity against human MDA-MB-231 cells assessed as cell viability after 48 hrs by Hoechst 33342 staining based assay; assay type: functional; conditions: MDA-MB-231, 48 h
# HaCaT [27] = experiment: Cytotoxicity against human HaCaT cells assessed as cell viability after 48 hrs by Hoechst 33342 staining based assay; assay type: functional
# MCF7 = experiment: Cytotoxicity against human MCF7 assessed as cell viability after 48 hrs by Hoechst 33342 staining based assay; assay type: functional; conditions: MCF7, 48 h
# HCT-116 [28] = experiment: Cell cycle arrest in human HCT116 cells harboring wild-type p53 assessed as accumulation at S phase at 10 uM measured after 48 hrs by Hoechst/BrdU staining based fluorescence assay (reference value: 68.4%); assay type: functional
# NCI-H727 [29] = experiment: Cell cycle arrest in human NCI-H727 cells harboring p53 mutant assessed as mitotic index at 25 uM measured after 48 hrs by Hoechst staining based fluorescence assay (reference value: 1.1); assay type: functional
# Caco-2 [30] = experiment: Cell cycle arrest in human Caco2 cells assessed as mitotic index at 10 uM measured after 48 hrs by Hoechst staining based fluorescence assay (reference value: 3.6); assay type: functional
# HaCaT [31] = experiment: Cell cycle arrest in human HaCaT cells assessed as accumulation at G1/S phase by Hoechst staining based fluorescence assay; assay type: functional
# PC-3 [32] = experiment: Cell cycle arrest in human PC3 cells harboring p53 mutant assessed as accumulation at S phase at 10 uM measured after 48 hrs by Hoechst/BrdU staining based fluorescence assay (reference value: 40.8%); assay type: functional
# HCT-116 [33] = experiment: Cell cycle arrest in human HCT116 cells harboring wild-type p53 assessed as accumulation at S phase at 25 uM measured after 48 hrs by Hoechst/BrdU staining based fluorescence assay (reference value: 68.4%); assay type: functional
# [34] = Selectivity index, ratio of IC50 for human fibroblasts to IC50 for human MCF7 cells
# NCI-H727 [35] = experiment: Cytotoxicity against human NCI-H727 cells assessed as cell viability after 48 hrs by Hoechst 33342 staining based assay; assay type: functional; conditions: NCI-H727, 48 h
# [36] = Selectivity index, ratio of IC50 for human fibroblasts to IC50 for human RL cells
# NCI-H727 [37] = experiment: Cell cycle arrest in human NCI-H727 cells harboring p53 mutant assessed as accumulation at S phase at 25 uM measured after 48 hrs by Hoechst/BrdU staining based fluorescence assay (reference value: 40.3%); assay type: functional
# Caco-2 [38] = experiment: Cytotoxicity against human Caco2 cells assessed as cell viability after 48 hrs by Hoechst 33342 staining based assay; assay type: functional; conditions: Caco-2, 48 h
# [39] = Selectivity index, ratio of IC50 for human fibroblasts to IC50 for human PC3 cells
# PC-3 [40] = experiment: Cell cycle arrest in human PC3 cells harboring p53 mutant assessed as accumulation at S phase at 25 uM measured after 48 hrs by Hoechst/BrdU staining based fluorescence assay (reference value: 40.8%); assay type: functional
# Huh-7 [41] = experiment: Cell cycle arrest in human HuH7 cells assessed as mitotic index at 10 uM measured after 48 hrs by Hoechst staining based fluorescence assay (reference value: 2.2); assay type: functional
# PC-3 [42] = experiment: Cell cycle arrest in human PC3 cells assessed as accumulation at G1/S phase by Hoechst staining based fluorescence assay; assay type: functional
# HaCaT [43] = experiment: Cell cycle arrest in human HaCaT cells harboring […] p53 assessed as accumulation at S phase at 10 uM measured after 48 hrs by Hoechst/BrdU staining based fluorescence assay (reference value: 52.3%); assay type: functional
# MDA-MB-231 [44] = experiment: Cell cycle arrest in human MDA-MB-231 cells harboring p53 mutant assessed as mitotic index at 25 uM measured after 48 hrs by Hoechst staining based fluorescence assay (reference value: 2.1); assay type: functional
# HCT-116 [45] = experiment: Cell cycle arrest in human HCT116 cells harboring wild-type p53 assessed as accumulation at M phase at 50 uM measured after 48 hrs by Hoechst staining based fluorescence assay (reference value: 2.3 to […]); assay type: functional
# HCT-116 [46] = experiment: Cell cycle arrest in human HCT116 cells harboring wild-type p53 assessed as accumulation at S phase at 50 uM measured after 48 hrs by Hoechst/BrdU staining based fluorescence assay (reference value: 68%); assay type: functional
# HCT-116 [47] = experiment: Cell cycle arrest in human HCT116 cells harboring wild-type p53 assessed as accumulation at S phase at 25 uM measured after 48 hrs by Hoechst/BrdU staining based fluorescence assay (reference value: 68%); assay type: functional
# MDA-MB-231 [48] = experiment: Cell cycle arrest in human MDA-MB-231 cells assessed as accumulation at G1/S phase by Hoechst staining based fluorescence assay; assay type: functional
# PC-3 [49] = experiment: Cell cycle arrest in human PC3 cells assessed as accumulation at G2/M phase by Hoechst staining based fluorescence assay; assay type: functional
# HCT-116 [50] = experiment: Cell cycle arrest in human HCT116 cells assessed as accumulation at G1/S phase by Hoechst staining based fluorescence assay; assay type: functional
# HCT-116 [51] = experiment: Cell cycle arrest in human HCT116 cells harboring wild-type p53 assessed as accumulation at M phase at 25 uM measured after 48 hrs by Hoechst staining based fluorescence assay (reference value: 2.3 to […]); assay type: functional
# Huh-7 [52] = experiment: Cell cycle arrest in human HuH7 cells assessed as accumulation at G1/S phase by Hoechst staining based fluorescence assay; assay type: functional
smiles,measurement,setting,value
Oc1cccc(-c2nc(N3CCOCC3)c3oc4ncccc4c3n2)c1 [PI-103],Activity_index,PC-3 [1],0.1
same,Activity_index,Caco-2 [2],0.9
same,Activity,Caco-2 [3],28%
same,Activity,Huh-7 [4],inactive
same,Activity,MDA-MB-231 [5],inactive
same,Activity,Huh-7 [6],inactive
same,Activity,HCT-116 [7],Active
same,Activity,Caco-2 [8],20%
same,Ratio IC50,[9],>6.4
same,Activity,NCI-H727 [10],inactive
same,IC50,HCT-116 [11],3.9 µM
same,Activity_index,HaCaT [12],0.9
same,Activity,Huh-7 [13],inactive
same,Activity_index,PC-3 [14],0.4
same,Activity,NCI-H727 [15],inactive
same,IC50,RL,2.9 µM
same,Ratio IC50,[16],>7.1
same,IC50,PC-3 [17],7.6 µM
same,IC50,Huh-7 [18],> 20 µM
same,Activity,MDA-MB-231 [19],inactive
same,Activity,HaCaT [20],12%
same,Activity_index,HCT-116 [21],1.8
same,Ratio IC50,[22],>12.5
same,Activity_index,HCT-116 [23],1.9
same,IC50,Fibroblast,> 20 µM
same,Activity,MDA-MB-231 [24],inactive
same,Activity_index,HaCaT [25],0.5
same,IC50,MDA-MB-231 [26],> 20 µM
same,IC50,HaCaT [27],3.5 µM
same,IC50,MCF7,13.3 µM
same,Activity,HCT-116 [28],63%
same,Activity,NCI-H727 [29],inactive
same,Activity_index,Caco-2 [30],1.4
same,Activity,HaCaT [31],Active
same,Activity,PC-3 [32],6%
same,Activity,HCT-116 [33],63%
same,Ratio IC50,[34],>1.9
same,IC50,NCI-H727 [35],> 20 µM
same,Ratio IC50,[36],>8.6
same,Activity,NCI-H727 [37],inactive
same,IC50,Caco-2 [38],2 µM
same,Ratio IC50,[39],>3.3
same,Activity,PC-3 [40],1.2%
same,Activity,Huh-7 [41],inactive
same,Activity,PC-3 [42],Active
same,Activity,HaCaT [43],20%
same,Activity,MDA-MB-231 [44],inactive
CC[C@H](CO)Nc1nc(NCc2ccccc2)c2ncn(C(C)C)c2n1 [SELICICLIB],Activity,HCT-116 [45],0.6%
same,Activity,HCT-116 [46],17%
same,Activity,Huh-7 [6],16%
same,Activity,NCI-H727 [10],inactive
same,Activity,HCT-116 [47],25%
same,Activity,MDA-MB-231 [48],Active
same,Activity,Huh-7 [13],9%
same,Activity,NCI-H727 [15],inactive
same,IC50,RL,0.9 µM
same,IC50,PC-3 [17],16.5 µM
same,IC50,Huh-7 [18],15.4 µM
same,Activity,PC-3 [49],Active
same,Activity,HCT-116 [50],Active
same,Activity,HCT-116 [51],1.2%
same,Activity,MDA-MB-231 [19],27%
same,Activity,HaCaT [20],3%
same,IC50,Fibroblast,> 20 µM
same,Activity,MDA-MB-231 [24],25%
same,IC50,MDA-MB-231 [26],16.8 µM
same,IC50,HaCaT [27],16.7 µM
same,IC50,MCF7,10.2 µM
same,Activity,HCT-116 [28],25%
same,Activity,NCI-H727 [29],inactive
same,Activity,HaCaT [31],Active
same,Activity,PC-3 [32],17%
same,Activity,HCT-116 [33],17%
same,Activity,Huh-7 [52],Active
same,IC50,NCI-H727 [35],> 20 µM
same,Activity,NCI-H727 [37],inactive
same,Activity,PC-3 [40],38%
same,Activity,HaCaT [43],26%

# — ChEMBL document CHEMBL3992552, “Mechanisms of action and structure-activity relationships of cytotoxic flavokawain derivatives” (Bioorg Med Chem, 2017)
